Like-named read-outs stand apart in the source and are kept apart here. Blank lines part the entries; values can stand above or below the compound they belong to.
Legend:
[1] = In vivo metabolism of [18F]17 and uptake of [18F]10; design: species or system CD1 mice; settings: for tissue uptake at 0.5 h / tissue uptake at 1 h: mouse, iv, after i.v. 100 to 200 kBq [18F]17, female CD1 mice
Experimental: The total amount of activity measured in, e.g. the plasma at particular times p.i. also depends on the kinetics of the excretion of radiotracer/radiometabolites. For [^18F]2, this is more pronounced than for [^18F]1 with unmetabolized [^18F]2 accounting for only 2% of the total radioactivity in the plasma at 30 min p.i. At this time, more than 90% of the recovered activity in plasma samples for [^18F]2 consisted of the single radiometabolite M1b. As this value decreases only slightly up to 60 min p.i. (88%), M1b can be assumed as a rather metabolically stable compound. This radiometabolite of [^18F]2 probably corresponds to the N-aryl-oxadiazolyl-propanoic acid resulting from enzymatic hydrolysis of the amide bond of 2[40]. […] In order introduce ^18F into the molecule, the carbon acid moiety was protected as a methyl ester resulting in the labelled compound [^18F]17 (Scheme 5). It was expected that after injection of this compound in mice, the ester will be converted into the free acid [^18F]10. […] After intravenous injection of [^18F]17 in CD1 mice, samples of the plasma, brain, and spleen were analyzed at 30 and 60 min p.i. (Table 5).
(§1) [^18F]1 and [^18F]2 (100 to 150 MBq, 250 to 450 GBq/μmol in 150 μL NaCl 0.9%/10% EtOH) were injected via the tail vein in CD1 male mice (10 to 12 weeks old, 20 to 25 g). Blood and urine samples were obtained at 30 and 60 min p.i. (n = 3 per time point). Twofold extractions of plasma and brain samples (n = 3) were performed using ice-cold MeCN according to the standard protocol established in our group (see [47, 48]). Briefly, plasma samples were obtained by centrifugation of the blood at 4,000×g at 4°C for 10 min, and brain samples were homogenized in ice-cold 50 mM Tris–HCl (pH = 7.4). The samples were vortexed, incubated on ice, and centrifuged at 10,000×g for 3 min. Supernatants were collected, and the precipitates were re-dissolved in ice-cold MeCN for the second extraction. The supernatants from the two extractions were combined, concentrated under a gentle argon stream at 65°C, and analyzed by radio-TLC and gradient analytical HPLC (see ‘Radiochemistry’ section). Aliquots from each extraction supernatant and the precipitates were also taken and quantified by γ counting (Wallac Wizard 1470, Perkin Elmer Inc., Waltham, MA, USA) along with the respective aliquots of intact plasma samples and brain homogenates. A moderate recovery of radioactivity was obtained from plasma samples and brain homogenates (60% to 70%). Radiometabolites of [^18F]17 in the plasma, spleen, and brain were assessed at 30 and 60 min p.i.

[2] = Ex vivo metabolite studies (radio-HPLC of plasma and brain extracts); assay type: in vivo, CD1 mice; settings: mice
Experimental: as §1

SMILES: Cc1ccc(S(=O)(=O)OCCn2c3ccccc3c3cc(NC(=O)CCc4nc(-c5ccc(F)cc5Br)no4)ccc32)cc1 [Compound 15, [2-(3-{3-[3-(2-Bromo-4-fluorophenyl)-1,2,4-oxadiazol-5-yl]propanamido}-9H-carbazol-9-yl)ethyl] 4-methylbenzenesulfonate]
melting point: 136 °C

SMILES: COC(=O)CCc1nc(-c2ccc([18F])cc2Br)no1 [[^18F]17]
Conversion to free acid [18F]10 in plasma samples ([1]; plasma, 30 min p.i., i.v., CD1 mice): completely converted

SMILES: CCn1c2ccccc2c2cc(NC(=O)CCc3nc(-c4ccc([N+](C)(C)C)cc4Br)no3)ccc21.[I-] [Compound 13, 3-Bromo-4-(5-(3-((9-ethyl-9H-carbazol-3-yl)amino)-3-oxopropyl)-1,2,4-oxadiazol-3-yl)-N,N,N-trimethylbenzenaminium iodide]
melting point: 109 °C

SMILES: COC(=O)CCc1nc(-c2ccc([N+](C)(C)C)cc2Br)no1.[I-] [Compound 18, 3-Bromo-4-(5-(3-methoxy-3-oxopropyl)-1,2,4-oxadiazol-3-yl)-N,N,N-trimethylbenzenaminium iodide]
melting point: 119 °C

The next lines start with the values.

melting point: 39 °C
SMILES: COC(=O)CCc1nc(-c2ccc(F)cc2Br)no1 [Compound 17, Methyl-3-(3-(2-bromo-4-fluorophenyl)-1,2,4-oxadiazol-5-yl)propanoate]

Percentage of total activity in brain samples, 30 min p.i. ([2]; brain homogenate extract, 30 min p.i. of [18F]1 or [18F]2, radio-HPLC): 8% | Percentage of total activity in brain samples, 60 min p.i. ([2]; brain homogenate extract, 60 min p.i. of [18F]1 or [18F]2, radio-HPLC): 51% | Relative percentage of intact tracer and radiometabolites, Plasma 60 min p.i. ([2]; plasma, 60 min p.i. of [18F]1 or [18F]2, radio-HPLC): 88% | tissue uptake at 0.5 h ([1]; brain, read-out: uptake, Brain, 30 min p.i.): 0.28 %ID/g | tissue uptake at 1 h ([1]; brain, read-out: uptake, Brain, 60 min p.i.): 0.29 %ID/g | tissue uptake at 0.5 h ([1]; plasma, read-out: uptake, Plasma, 30 min p.i.): 18.2 %ID/g | tissue uptake at 1 h ([1]; plasma, read-out: uptake, Plasma, 60 min p.i.): 15.4 %ID/g | tissue uptake at 0.5 h ([1]; spleen, read-out: uptake, Spleen, 30 min p.i.): 1.35 %ID/g | tissue uptake at 1 h ([1]; spleen, read-out: uptake, Spleen, 60 min p.i.): 1.31 %ID/g | Further metabolic transformation in brain and spleen samples ([1]; up to 60 min p.i. of [18F]17, CD1 mice): no further metabolic transformation
SMILES: O=C(O)CCc1nc(-c2ccc([18F])cc2Br)no1 [[^18F]10]

— paper PMC3856494, “Radiofluorination and biological evaluation of N-aryl-oxadiazolyl-propionamides as potential radioligands for PET imaging of cannabinoid CB2 receptors” (Organic and Medicinal Chemistry Letters, 2013)
